Type in all cases: cell-based, human
Assay [1] relates to T84 cells (histamine-stimulated chloride ion secretion). The experiment in a line: Histamine-stimulated chloride ion secretion (short circuit current) in T84 monolayers. The conditions noted are these: for effect on histamine-stimulated / calcium-mediated chloride ion secretion (in words): T84 cells; for activity at 200 µM: 200 μM compound alone. How it is done: Enantiomerically pure 1,2-Bt2 -Ins(3,4,5,6)P4 /AM was synthesized to determine if 1,2-Bt2 -Ins(3,4,5,6)P4 /AM mediates the uncoupling of chloride ion secretion from intracellular calcium concentrations. […] After 7-10 days of incubation on SNAP-WELLS (Corning Costar; Cambridge, Mass.), monolayers had formed tight junctions. Cell monolayers were preincubated with 100, 200 or 400 μM Bt2 -Ins(3,4,5,6)P4 /AM for 30 min prior to mounting. After an additional 30 min, 0.1 mM histamine was added and chloride ion secretion was monitored. Chloride ion secretion was measured as short circuit current (Isc) across T84 monolayers grown to confluence and mounted in Ussing chambers equipped with voltage clamps (Physiologic Instruments; San Diego, Calif.). Data was acquired and analyzed using "Acquire and Analyze" software (Physiologic Instruments).
(§1) Initial studies were directed towards understanding structural determinants of Ins(3,4,5,6)P4 responsible for the inhibitory effect on calcium-mediated chloride ion secretion. A series of cell permeable inositol polyphosphate derivatives were synthesized. These derivatives contained either one or two non-hydrolyzable chemical groups on the 1, 2 or 3 position. T84 monolayers were preincubated for 30 minutes with 200 μM of 2-Bt-1-Me-Ins(3,4,5,6)P4 /AM, Me2 -Ins(3,4,5,6)P4 /AM, Me2 -Ins(1,4,5,6)P4 /AM or 2-Bt-3-Me-Ins(1,4,5,6)P4 /AM.
(§2) Following the incubation, cells were mounted in Ussing chambers. Calcium-mediated chloride ion secretion was stimulated with histamine (10^-4 M). Control values were the response to histamine in coincubated monolayers. Data are represented as mean peak ΔIsc ±SEM, expressed as % control for 8 to 10 experiments. Significant differences were identified using the Student's two-tailed t test.

Assay [2] deals with colonic epithelial T84 cells (calcium-mediated chloride ion secretion). Description: Inhibition of calcium-mediated chloride ion secretion (Table I summary). The text has this: The invention provides compounds that are agonists or antagonists of inositol polyphosphates. Inositol polyphosphate derivatives can function as inositol polyphosphate agonists and antagonists. The effects of compounds of the invention on Ins(3,4,5,6)P4 - and PtdInsP3 -mediated inhibition of calcium-mediated chloride ion secretion are described in the Examples and summarized in Table I.
Enantiomerically pure 1,2-Bt2 -Ins(3,4,5,6)P4 /AM was synthesized to determine if 1,2-Bt2 -Ins(3,4,5,6)P4 /AM mediates the uncoupling of chloride ion secretion from intracellular calcium concentrations. T84 cells (passages 18-48) were maintained as described previously (Weymer, et al., J. Clin. Invest. 76:1828 (1985)), which is incorporated herein by reference. After 7-10 days of incubation on SNAP-WELLS (Corning Costar; Cambridge, Mass.), monolayers had formed tight junctions. Cell monolayers were preincubated with 100, 200 or 400 μM Bt2 -Ins(3,4,5,6)P4 /AM for 30 min prior to mounting. After an additional 30 min, 0.1 mM histamine was added and chloride ion secretion was monitored. Chloride ion secretion was measured as short circuit current (Isc) across T84 monolayers grown to confluence and mounted in Ussing chambers equipped with voltage clamps (Physiologic Instruments; San Diego, Calif.). Data was acquired and analyzed using "Acquire and Analyze" software (Physiologic Instruments).

Assay [3] has as its system T84 cells (Ins(3,4,5,6)P4 inhibition of histamine-stimulated chloride ion secretion). Description: Reversal of Bt2 -Ins(3,4,5,6)P4 /AM inhibition of histamine-stimulated chloride ion secretion in T84 cells. The conditions noted are these: for Peak ΔIsc (% Control) after histamine (100 μM): 200 μM antagonist + 200 μM Bt2 Ins (3,4,5,6)P4 /AM, mean ± SEM, 30 min; for reversal of the inhibitory effect of Bt2 -Ins(3,4,5,6)P4 /AM / Ins(3,4,5,6)P4-mediated inhibition (in words): T84 cells, histamine-stimulated. How it is done: as §1, §2
T84 cells were preincubated with cell permeant inositol polyphosphates as described above to determine if any of the inositol polyphosphate derivatives function as antagonists of Ins(3,4,5,6)P4 inhibition of calcium-mediated chloride ion secretion. Following histamine stimulation, short circuit current was measured. […] The % control shown in FIG. 3 represents ΔIsc over peak Isc in control monolayers stimulated with histamine. However, […]

In assay [4] the test system is T84 colonic epithelial cells (carbachol-mediated inhibition of chloride ion secretion). Description: Reversal of carbachol-mediated inhibition of thapsigargin-stimulated chloride ion secretion in T84 cells. Particulars: carbachol 10^-4 M, thapsigargin 1 μM. How it is done:
T84 colonic epithelial cells were treated with D,L-1,2-cyclohexylidene-Ins(3,4,5,6)P4 /AM, 1-Bu-2-Bt-Ins(3,4,5,6)P4 /AM, Bu2 -Ins(3,4,5,6)P4 /AM, 3-Bt-2-Bu-Ins(1,4,5,6)P4 /AM, Bu2 -Ins(1,4,5,6)P4 /AM, 1-Bt-2-Bu-Ins(3,4,5,6)P4 /AM or 3-Bu-2-Bt-Ins(1,4,5,6)P4 /AM and the short circuit current was measured.
One set of cells was preincubated for 30 min with an inositol polyphosphate derivative. The other two sets of cells were preincubated with vehicle, alone. Measurement of Isc was initiated at time 0. At 5 min, carbachol (10^-4 M) was added to one set of cells preincubated with vehicle alone (designated "Carbachol" in FIG. 5) and to the set of cells preincubated with inositol polyphosphate derivatives (designated "Carbachol+D,L-1,2-Cyclohexylidene-Ins(3,4,5,6)P4 /AM" in FIG. 5A). At 30 min, 1 μM thapsigargin was added. Data were collected for n=4 to 6 experiments.

The subject of assay [5] is T84 cells (carbachol-stimulated chloride ion secretion). Description: Carbachol-stimulated (calcium-mediated) chloride ion secretion in T84 cells. Particulars: for effect on carbachol-stimulated / calcium-mediated chloride ion secretion (in words): T84 cells, preincubation. How it is done: The cell permeable derivative D,L-Bt3 -Ins(1,3,4)P3 /AM was synthesized. Colonic epithelial T84 cells were preincubated for 30 min with 400 μM D,L-Bt3 -Ins(1,3,4)P3 /AM prior to mounting in Ussing chambers and measuring ΔIsc. At 10 min, carbachol (10^-4 M) was added to transiently stimulate calcium-mediated chloride ion secretion. Data were the average of 8 experiments with p<0.04, unpaired, two-sided student's t-test. […]

Where [6] appears, read: Homo sapiens, T84, 0.5 h, mean ± SEM, read-out: Peak ΔIsc (% Control) after histamine (100 μM).

“Also recorded” adds a separate entry of the source.

On to `CC(=O)OCOP(=O)(OCOC(C)=O)O[C@H]1[C@H](OP(=O)(OCOC(C)=O)OCOC(C)=O)[C@@H](OP(=O)(OCOC(C)=O)OCOC(C)=O)[C@@H](Cl)[C@@H](Cl)[C@@H]1OP(=O)(OCOC(C)=O)OCOC(C)=O` (relative stereo) [D,L-1,2-Cl2-dideoxy-Ins(3,4,5,6)P4 /AM, D,L-1,2-dichloro-1,2-dideoxy-myo-inositol 3,4,5,6-TKphosphate oct (acetoxymethyl) ester], for which the activity at 400 µM in assay [1] (Homo sapiens, T84, 0.5 h, 400 μM compound alone, mean ± SEM, read-out: Peak ΔIsc (% Control) after histamine (100 μM)) was found to be 89.4 ± 7.8%. Moreover, the “effect on histamine-stimulated / calcium-mediated chloride ion secretion (in words)” value in assay [1] was “slight inhibitory effect on chloride ion secretion”.

With `CCCC(=O)O[C@@H]1[C@@H](OC(=O)CCC)[C@H](OP(=O)(OCOC(C)=O)OCOC(C)=O)[C@@H](OP(=O)(OCOC(C)=O)OCOC(C)=O)[C@H](OP(=O)(OCOC(C)=O)OCOC(C)=O)[C@H]1OP(=O)(OCOC(C)=O)OCOC(C)=O` (relative stereo) [D,L-Bt2 -scyllo-Ins(3,4,5,6)P4 /AM, D,L-1,2-O-butyryl-scyllo-inositol 3,4,5,6-TKphosphate oct (acetoxymethyl) ester], the “Mechanism and Inositol Polyphosphate Pathway Affected” value in assay [2] (pathway: Ins (3,4,5,6)P4) was “Agonist of”. Besides, the “effect on histamine-stimulated / calcium-mediated chloride ion secretion (in words)” value in assay [1] was “inhibit calcium-mediated chloride secretion”; in assay [1] (listed as scyllo derivative of the cell permeable Bt2 -Ins(3,4,5,6)P4 /AM), “at least as effective an inhibitor as the myo derivative”.

Regarding `CCCC(=O)O[C@H]1[C@@H](OC)[C@H](OP(=O)(OCOC(C)=O)OCOC(C)=O)[C@@H](OP(=O)(OCOC(C)=O)OCOC(C)=O)[C@H](OP(=O)(OCOC(C)=O)OCOC(C)=O)[C@H]1OP(=O)(OCOC(C)=O)OCOC(C)=O` [2-Bt-1-Me-Ins(3,4,5,6)P4 /AM, 2-O-butyryl-1-O-methyl-myo-inositol 3,4,5,6-TKphosphate oct (acetoxymethyl) ester], the “Mechanism and Inositol Polyphosphate Pathway Affected” value in assay [2] (pathway: Ins (3,4,5,6)P4) is reported as “Antagonist of”. Further, in assay [1] (setting [6]), the activity at 200 µM stood at 87.3 ± 6.6%. Also, in assay [3], the “Peak ΔIsc (% Control) after histamine (100 μM)” value (from here on “Peak ΔIsc (% Control)”) is listed as 117.7 ± 10.6 % Control and the “reversal of the inhibitory effect of Bt2 -Ins(3,4,5,6)P4 /AM / Ins(3,4,5,6)P4-mediated inhibition (in words)” value is listed as “enhanced chloride ion secretion; also recorded: reversed Ins(3,4,5,6)P4 -mediated inhibition of chloride ion secretion; also recorded: reversed the inhibitory effect of Bt2 -Ins(3,4,5,6)P4 /AM”.

`CCCC(=O)O[C@@H]1[C@H](OC)[C@@H](OP(=O)(OCOC(C)=O)OCOC(C)=O)[C@H](OP(=O)(OCOC(C)=O)OCOC(C)=O)[C@@H](OP(=O)(OCOC(C)=O)OCOC(C)=O)[C@@H]1OP(=O)(OCOC(C)=O)OCOC(C)=O` [2-Bt-3-Me-Ins(1,4,5,6)P4 /AM, 2-O-butyryl-3-O-methyl-myo-inositol 3,4,5,6-TKphosphate oct (acetoxymethyl) ester]: the activity at 200 µM in assay [1] (setting [6]) worked out at 106 ± 3.7%. Also, in assay [3], the “Peak ΔIsc (% Control)” value is 69.7 ± 5.04 % Control and the “reversal of the inhibitory effect of Bt2 -Ins(3,4,5,6)P4 /AM / Ins(3,4,5,6)P4-mediated inhibition (in words)” value was “had essentially no effect”.

Take `CCCCO[C@@H]1[C@H](OCCCC)[C@@H](OP(=O)(OCOC(C)=O)OCOC(C)=O)[C@H](OP(=O)(OCOC(C)=O)OCOC(C)=O)[C@@H](OP(=O)(OCOC(C)=O)OCOC(C)=O)[C@@H]1OP(=O)(OCOC(C)=O)OCOC(C)=O` [Bu2 -Ins(1,4,5,6)P4 /AM, D-2,3-Di-O-butyl-myo-inositol 1,4,5,6-tetrakisphosphate octakis(acetozymethyl)ester]: the “reversal of carbachol-mediated inhibition of chloride ion secretion (in words)” value is “enhanced chloride ion secretion” in assay [4] and “did not reverse carbachol-mediated inhibition of chloride ion secretion stimulated by thapsigargin” in assay [4] (listed as 2,3-Bu2 -Ins(1,4,5,6)P4 /AM).

As for `CO[C@@H]1[C@H](OC)[C@@H](OP(=O)(OCOC(C)=O)OCOC(C)=O)[C@H](OP(=O)(OCOC(C)=O)OCOC(C)=O)[C@@H](OP(=O)(OCOC(C)=O)OCOC(C)=O)[C@@H]1OP(=O)(OCOC(C)=O)OCOC(C)=O` [Me2 -Ins(1,4,5,6)P4 /AM, 2,3-di-O-methyl-myo-inositol 3,4,5,6-TKphosphate oct (acetoxymethyl) ester], in assay [1] (setting [6]), the activity at 200 µM is 120 ± 10.6%. In addition, in assay [3], the “Peak ΔIsc (% Control)” value worked out at 68.4 ± 7.3 % Control and the “reversal of the inhibitory effect of Bt2 -Ins(3,4,5,6)P4 /AM / Ins(3,4,5,6)P4-mediated inhibition (in words)” value is recorded as “had essentially no effect”.

`CO[C@@H]1[C@H](OC)[C@H](OP(=O)(OCOC(C)=O)OCOC(C)=O)[C@@H](OP(=O)(OCOC(C)=O)OCOC(C)=O)[C@H](OP(=O)(OCOC(C)=O)OCOC(C)=O)[C@H]1OP(=O)(OCOC(C)=O)OCOC(C)=O` [Me2 -Ins(3,4,5,6)P4 /AM, 1,2-di-O-methyl-myo-inositol 3,4,5,6-Tkphosphate oct (acetoxymethyl) ester]: in assay [2] (pathway: Ins (3,4,5,6)P4), the “Mechanism and Inositol Polyphosphate Pathway Affected” value is “Antagonist of”. In assay [1] (setting [6]), the activity at 200 µM is 104 ± 11.1%. Besides, in assay [3], the “Peak ΔIsc (% Control)” value is listed as 107.13 ± 10.2 % Control and the “reversal of the inhibitory effect of Bt2 -Ins(3,4,5,6)P4 /AM / Ins(3,4,5,6)P4-mediated inhibition (in words)” value was “reversed the inhibitory effect of Bt2 -Ins(3,4,5,6)P4 /AM”. Further, the “reversal of the inhibitory effect of Bt2 -Ins(3,4,5,6)P4 /AM / Ins(3,4,5,6)P4-mediated inhibition (in words)” value in assay [3] (listed as Me2 -Ins-(3,4,5,6)P4 /AM) is recorded as “reversed Ins(3,4,5,6)P4 -mediated inhibition of chloride ion secretion”.

“di-palmitoyl-D,L-O-butyryl-phosphatidyl inositol 3,4,5-trisphosphate heptakis (acetoxymethyl) ester [diC16 -Bt-PtdInsP3 /AM]”: in assay [2] (pathway: PtdInsP3), the “Mechanism and Inositol Polyphosphate Pathway Affected” value is reported as “Agonist of”. Moreover, the “effect on carbachol-stimulated / calcium-mediated chloride ion secretion (in words)” value in assay [5] is “inhibited calcium-mediated chloride ion secretion”. In addition, in assay [5] (pretreatment of T84 cells, FIG. 7), the “inhibition of calcium-mediated chloride ion secretion” value is listed as “up to 74%”.

Consider “phosphatidylinositol trisphosphate [PtdInsP3, reference compound]”, for which the “effect on carbachol-stimulated / calcium-mediated chloride ion secretion (in words)” value in assay [5] is given as “No inhibition of calcium-mediated chloride ion secretion”.

The values above are taken from patent US5880099A, “Inositol polyphosphates and methods of using same” (The Regents of the University of California, priority 1997, dated 1999).
